Test results taken from PMC10653918, “Antibiotic that inhibits trans-translation blocks binding of EF-Tu to tmRNA but not to tRNA” (mBio, 2023).
Values after ≈ are worked out from the molar mass of the structure shown. Read-outs that look alike come from different tables or passages of the source.

Legend:
E. coli EF-Tu•GTP = E. coli EF-Tu•GTP (Escherichia coli, UniProt P0CE47); test: biochemical; assay type: binding
[1] = system: EF-Tu•GTP (Escherichia coli MG1655 (pCA24N tufA, ASKA clone JW3301)); test: filter binding; conditions: 10 mM Mg2+, 44 mM KH2PO4, 6 mM K2HPO4, 10 mM MgCl2, 50 µg/mL BSA, pH 5.5 (RNA-binding mix; 34 µL mix + 16 µL EF-Tu), 0.1 nM RNA, 15 s at room temperature
trans-translation = test: In vitro trans-translation assay (tagging of DHFR from nonstop template with tmRNA-SmpB); conditions: 10 µM compound; percentage of total DHFR in tagged DHFR band; DMSO control 90 ± 7
translation = test: In vitro translation assay (DHFR with stop codon, no tmRNA-SmpB); conditions: DMSO control 100 ± 1
EF-Tu•GTP H319A = EF-Tu•GTP H319A (Escherichia coli, UniProt P0CE47, H320A); test: MST binding assay, EF-Tu H319A mutant
E. coli ∆tolC = test: microbe, parasite or virus in culture; assay type: cell-based; conditions: Escherichia coli
Francisella tularensis = conditions: compared with tetracycline; cited from earlier work
EF-Tu•GDP = EF-Tu•GDP (Escherichia coli, UniProt P0CE47); test: MST binding assay, EF-Tu•GDP; design: species or system E. coli
EF-Tu•GTP R318N = EF-Tu•GTP R318N (Escherichia coli, UniProt P0CE47, R319N); test: MST binding assay, EF-Tu R318N mutant
EF-Tu•GTP R318K = EF-Tu•GTP R318K (Escherichia coli, UniProt P0CE47, R319K); test: MST binding assay, EF-Tu R318K mutant
EF-Tu•GTP E378A = EF-Tu•GTP E378A (Escherichia coli, UniProt P0CE47, E379A); test: MST binding assay, EF-Tu E378A mutant
[2] = system: B. anthracis vegetative cells, germinants, and spores; conditions: in vitro and after ex vivo infection of macrophages; cited from earlier work
[3] = no KKL-55, 3'-alanylated with AlaRS

Question: Which “binding to EF-Tu” value (E. coli EF-Tu•GTP) does the source give for `O=C(Nc1nnc(-c2ccc(F)cc2)o1)c1ccc(Cl)cc1` [KKL-35, reference compound] here?
Answer: The value was “No binding”.

Question: Which results are given for Ala-tmRNA?
Answer: Kd ([1]; 25 µM KKL-55 (substantially reduced, no saturation), 3'-alanylated with AlaRS): > 10000 nM; Kd [1, 3]: 750 nM

Question: What does the source list for `O=C(CCCCC1SCC2NC(=O)NC21)NCCn1nnnc1NC(=O)c1cccc(Cl)c1` (centres unmarked) [KKL-201]?
Answer: tagging efficiency ± SD (trans-translation): 42 ± 2%; translation efficiency ± SD (translation; 10 µM compound): 99 ± 6%

Question: With `O=C(N[C@H](CO)[C@H](O)c1ccc([N+](=O)[O-])cc1)C(Cl)Cl` [chlor, chloramphenicol, reference compound] as the molecule, how does the “translation efficiency ± SD” value (translation; 100 µM compound) read?
Answer: The value was 5 ± 3%.

Question: With Ala-tRNAAla as the molecule, how does the Kd [1, 3] read?
Answer: Its Kd is 280 nM.

Question: For `CCCn1nnnc1NC(=O)c1cccc(Cl)c1` [KKL-55], which Kd (EF-Tu•GTP H319A) is on record?
Answer: The Kd was 2400 ± 100 nM.

Question: And the Kd (EF-Tu•GTP H319A; MST, H319A EF-Tu•GTP)?
Answer: Its Kd is “little impact on binding”.

Question: And the MIC (E. coli ∆tolC)?
Answer: Its MIC is 2.3 µM (≈ 0.611 µg/mL).

Question: And the MIC (Francisella tularensis)?
Answer: The MIC was “comparable to that of tetracycline”.

Question: What about the “tagging efficiency ± SD” value (trans-translation) of the same molecule?
Answer: The value was 30 ± 2%.

Question: And the Kd (EF-Tu•GDP)?
Answer: Its Kd is 1600 ± 20 nM.

Question: And the “translation efficiency ± SD” value (translation; 100 µM compound)?
Answer: The value was 102 ± 2%.

Question: What about the Kd (EF-Tu•GTP R318N) of the same molecule?
Answer: Its Kd is > 20000 nM.

Question: And the Kd (EF-Tu•GTP R318K)?
Answer: Its Kd is 2600 nM.

Question: And the Kd (EF-Tu•GTP E378A)?
Answer: Its Kd is 2600 ± 200 nM.

Question: What about the Kd (EF-Tu•GTP E378A; MST, E378A EF-Tu•GTP) of the same molecule?
Answer: Its Kd is “little effect on binding affinity”.

Question: And the Kd (E. coli EF-Tu•GTP)?
Answer: The Kd was 2000 nM.

Question: What about the bactericidal activity [2] of the same molecule?
Answer: Its bactericidal activity is “bactericidal”.
